Reference: patent US20090123979A1, “Methods of reducing the inhibitory effect of a tannin on the enzymatic hydrolysis of cellulosic material” (Novozymes, Inc., priority 2007, published 2009)
Where two headings read alike, the source gives them in different places.

Tests used:
[1] = target: T1, Trichoderma reesei CEL5A endoglucanase II (Trichoderma reesei, UniProt P07982); test: PASC hydrolysis by CEL5A endoglucanase II with tannic acid; assay type: biochemical
T1 construct: made in house
Experimental: The inhibitory effect of tannic acid was determined on Trichoderma reesei CEL7A cellobiohydrolase 1, Trichoderma reesei CEL6A cellobiohydrolase II, Trichoderma reesei CEL7B endoglucanase 1, and Trichoderma reesei CEL5A endoglucanase II using PASC as substrate.
To quantify the inhibition, tannic acid was evaluated in the hydrolysis of PASC.

[2] = target: T2, Trichoderma reesei CEL7B endoglucanase I (Trichoderma reesei, UniProt P07981); test: CMC hydrolysis by CEL7B endoglucanase I with tannic acid; assay type: biochemical; conditions: 1 mM tannic acid, 50° C., 4 hours
T2 construct: made in house; host or cells: Aspergillus oryzae JaL250
Experimental: The effect of tannic acid on Trichoderma reesei CEL7B endoglucanase I and Trichoderma reesei CEL5A endoglucanase II was also evaluated using carboxymethylcellulose (CMC) as substrate. The hydrolysis reactions were conducted in duplicate using the “mini-plate-scale” hydrolysis procedure described in Example 33, except that 1 mM tannic acid and 10 to 20 g of carboxymethylcellulose (CMC) and 1 to 20 mg of enzyme per liter 50 mM sodium acetate pH 5.0 were used at 50° C. for 4 hours. Soluble reducing sugars were analyzed by a p-hydroxybenzoic acid hydrazide (PHBAH) assay according to the method of Lever, 1972, Anal. Biochem. 47: 273-279, instead of by HPLC as described in Examples 30 and 33. Reactions without the addition of the enzymes served as controls to correct background absorption. Spectrophotometric measurements were performed using a SPECTRAMAX™ 340PC reader (Molecular Devices Corp., Sunnyvale, Calif., USA) with COSTAR® 96-well microplates (Cole-Parmer Instrument Co, Vernon Hills, Ill., USA).

[3] = target: T3, Cellulolytic Enzyme Composition #2; test: PCS hydrolysis by Cellulolytic Enzyme Composition #2 with added compounds; assay type: biochemical, Trichoderma reesei; conditions: for Ki: PCS hydrolysis, Cellulolytic Enzyme Composition #2
T3 construct: Dixon plot linear regression intercept (1/Rate); other: PCS; rate from hydrolysis difference (%) at 0 and 5 hours; rate from hydrolysis difference (%); Ki (x-intercept of Dixon plot); other: PCS hydrolysis, Cellulolytic Enzyme Composition #2; OPC flavonol-equivalent; Ki expressed as galloyl constituents; oth; fused on or other part: In one component the Humicola insolens endoglucanase V (CEL45A) core is fused in front of the A. oryzae beta-glucosidase
Experimental: (§1) Corn stover was pretreated at the U.S. Department of Energy National Renewable Energy Laboratory (NREL), […], Colo., USA, using dilute sulfuric acid. The following conditions were used for the pretreatment: 1.4 wt % sulfuric acid at 195° C. for 4.5 minutes. According to limit digestion with excess cellulase enzymes, the water-insoluble solids in the pretreated corn stover (PCS) contained 59.5% cellulose. Prior to use, the PCS was washed with a large volume of deionized water until soluble acid and sugars were removed. The dry weight of the water-washed PCS was 19.16%.
(§2) The effect of a mixture of tannic acid, ellagic acid, epicatechin, and six lignin constituent compounds (4-hydroxyl-2-methylbenzoic acid, vanillin, coniferyl alcohol, coniferyl aldehyde, ferulic acid, and syringaldehyde) was determined on the hydrolysis of PCS by Cellulolytic Enzyme Composition #1 or Cellulolytic Enzyme Composition #2. […] Cellulolytic Enzyme Composition #1 or Cellulolytic Enzyme Composition #2 was added at 0.25 g per liter. Reactions without the addition of the compounds served as controls. The capped tubes were incubated at 50° C. in an INNOVA® 4080 incubator shaker (New Brunswick Scientific Co., Inc., Edison, N.J., USA) at 150 rpm.
(§3) Aliquots of the suspensions, sampled over time, were filtered by centrifugation using a 0.45 μm MULTISCREEN® HV membrane (Millipore, Billerica, Mass., USA) at 2000 rpm for 15 minutes using a SORVALL® RT7 centrifuge (Thermo Fisher Scientific, Waltham, Mass., USA). When not used immediately, the filtered aliquots were frozen at −20° C. Sugar concentrations of the samples diluted in 0.005 M H2SO4 were measured after elution by 0.005 M H2SO4 at a flow rate of 0.4 ml/minute from a 4.6×250 mm AMINEX® HPX-87H column (Bio-Rad, Hercules, Calif., USA) at 65° C. with quantitation by integration of glucose and cellobiose using refractive index detection (CHEMSTATION®, AGILENT® 1100 HPLC, Agilent Technologies, Santa Clara, Calif., USA) calibrated with standards of glucose and cellobiose. The resultant equivalents were used to calculate the percentage of cellulose conversion for each reaction.
(§4) The degree of cellulose conversion to glucose plus cellobiose sugars (conversion, %) was calculated using the following equation:
(§5) Conversion(%)=(glucose+cellobiose×1.053)(mg/ml)×100×162/cellulose(mg/ml)×180)=(glucose+cellobiose×1.053)(mg/ml)×100/(cellulose(mg/ml)×1.111)
(§6) In this equation the factor 1.111 reflects the weight gain in converting cellulose to glucose, and the factor 1.053 reflects the weight gain in converting cellobiose to glucose. Cellulose in PCS was determined by a limit digest of PCS to release glucose and cellobiose.
(§7) Example 30 was repeated except that each compound was tested separately. […] Reactions without the addition of each compound served as controls.
(§8) The effect of OPC or flavonol on the hydrolysis of PCS by Cellulolytic Enzyme Composition #1 or Cellulolytic Enzyme Composition #2 was determined according to the procedure described in Example 30. OPC and flavonol were present at a concentration of 1 mM. Reactions without the addition of the compounds served as controls.
The effective inhibitory concentration range for tannic acid and OPC was also determined by the “mini-scale” hydrolysis described in Example 30 with Cellulolytic Enzyme Composition #2. The concentration of tannic acid ranged from 0.1 mM to 1 mM, while the concentration of OPC ranged from 0.1 mM to 10 mM. Reactions without the addition of the tannic compounds served as controls.
However, prior to the addition of Cellulolytic Enzyme Composition #2, the mixture of PCS or OPC and tannic acid was treated with Aspergillus oryzae tannase (Novozymes A/S, Bagsværd, Denmark) at 10% of the final protein level for 30 minutes. Reactions without addition of the tannic acid, OPC, or tannase served as controls.

[4] = system: T4, Cellulolytic Enzyme Composition #1; test: PCS hydrolysis by Cellulolytic Enzyme Composition #1 with added compounds; assay type: biochemical, Trichoderma reesei
T4 construct: other: PASC hydrolysis; mean ± SD; 0.01 g enzyme; Dixon plot linear regression intercept (1/Rate); other: AVICEL; rate from hydrolysis difference (%) at 0 and 6 hours; rate from hydrolysis difference; fused on or other part: The A. oryzae beta-glucosidase is the mature chain secreted behind the Humicola insolens endoglucanase V signal peptide, which is cleaved off
Experimental: as §1, §2, §3, §4, §5, §6, §7, §8
Methyl gallate and ellagic acid were compared at 10 mM to 1 mM tannic acid in the hydrolysis of PCS by Cellulolytic Enzyme Composition #1.

[5] = PCS, rate from hydrolysis difference (%) at 0 and 5 hours
[6] = 50 g PCS, 0.25 g enzyme per liter, methyl gallate and ellagic acid 10 mM, tannic acid 1 mM

T1 sequence (P07982 22-418): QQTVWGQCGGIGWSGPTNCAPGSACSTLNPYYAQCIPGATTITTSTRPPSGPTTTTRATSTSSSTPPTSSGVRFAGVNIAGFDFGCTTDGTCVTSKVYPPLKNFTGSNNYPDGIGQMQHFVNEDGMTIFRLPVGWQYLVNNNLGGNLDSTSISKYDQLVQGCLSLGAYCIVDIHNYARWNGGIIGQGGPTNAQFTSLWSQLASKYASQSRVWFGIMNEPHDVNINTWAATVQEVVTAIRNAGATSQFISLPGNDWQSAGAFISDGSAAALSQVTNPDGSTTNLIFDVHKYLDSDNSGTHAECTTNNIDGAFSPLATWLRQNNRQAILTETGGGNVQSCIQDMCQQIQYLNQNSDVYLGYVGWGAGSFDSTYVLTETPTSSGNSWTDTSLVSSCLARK
T2 sequence (P07981 23-459): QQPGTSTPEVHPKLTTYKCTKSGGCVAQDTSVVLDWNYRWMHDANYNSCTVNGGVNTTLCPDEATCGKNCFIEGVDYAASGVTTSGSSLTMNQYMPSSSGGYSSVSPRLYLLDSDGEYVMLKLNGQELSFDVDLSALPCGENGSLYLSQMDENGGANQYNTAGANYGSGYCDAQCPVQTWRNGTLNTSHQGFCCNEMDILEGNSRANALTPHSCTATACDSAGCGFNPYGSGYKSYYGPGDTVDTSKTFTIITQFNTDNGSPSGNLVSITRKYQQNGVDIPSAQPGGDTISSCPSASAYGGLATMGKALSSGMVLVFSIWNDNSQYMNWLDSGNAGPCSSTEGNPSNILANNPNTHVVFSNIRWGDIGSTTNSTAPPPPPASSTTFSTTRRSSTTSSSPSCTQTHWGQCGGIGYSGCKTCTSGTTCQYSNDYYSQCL

O=C(OC[C@H]1O[C@@H](OC(=O)c2cc(O)c(O)c(OC(=O)c3cc(O)c(O)c(O)c3)c2)[C@H](OC(=O)c2cc(O)c(O)c(OC(=O)c3cc(O)c(O)c(O)c3)c2)[C@@H](OC(=O)c2cc(O)c(O)c(OC(=O)c3cc(O)c(O)c(O)c3)c2)[C@@H]1OC(=O)c1cc(O)c(O)c(OC(=O)c2cc(O)c(O)c(O)c2)c1)c1cc(O)c(O)c(OC(=O)c2cc(O)c(O)c(O)c2)c1 [tannic acid, Tannic acid]
effect on PASC hydrolysis by CEL5A endoglucanase II ([1]; 1 mM tannic acid, 2 g PASC per liter, over 4 hours): significantly inhibited
IC50 ([1]; PASC hydrolysis, mean ± SD, 0.04 g enzyme per liter, pH 5, 50° C., read-out: I50 for CEL5A EGII): 320 ± 50 µM
type of inhibition (double reciprocal plots), CEL5A EGII ([1]; PASC, 0.1 to 0.7 mM tannic acid): mixed
effect on CMC hydrolysis by CEL7B endoglucanase I [2]: significantly inhibited
Ki ([3]; OPC flavonol-equivalent, read-out: Ki (x-intercept of Dixon plot)): ~180 µM
Ki ([3]; corresponding galloyl constituents, read-out: Ki expressed as galloyl constituents): 1800 µM
Dixon plot linear regression intercept (1/Rate) [3, 5]: 0.018±0.005
Dixon plot linear regression slope (1/Rate vs inhibitor concentration) [3, 5]: 0.098±0.009
concentration dependence of inhibition of PCS hydrolysis ([3]; tannic acid 0.1 mM to 1 mM, OPC 0.1 mM to 10 mM, 43 g PCS and 0.25 g enzyme per liter): increasingly inhibitory
effect on hydrolysis of PCS by Cellulolytic Enzyme Composition #1 ([4]; 1 mM each compound, 43.4 g PCS and 0.25 g enzyme per liter, pH 5.0, 50° C.): significantly inhibited
loss in initial rate of PCS hydrolysis [4, 6]: ~70%
loss in the extent of PCS hydrolysis at day 4 [4, 6]: ~60%
